Measurements from patent publication US20050130252A1, “Stabilized susceptibility tests of aerobic pathogens” (Wyeth Holdings Corporation, priority 2003, published 2005).
≈ marks a conversion by molar mass, not a printed value. Like-named read-outs stand apart in the source and are kept apart here.

How the values were obtained:
E. coli ATCC 25922 = test: Broth microdilution MIC; format: cell-based, Escherichia coli; conditions: for MIC: Escherichia coli, ATCC25922, read-out: Minimal Inhibitory Concentration, E. coli ATCC 25922
Procedure: The process for preparing susceptibility test medium are the following steps: • a. Preparing Mueller Hinton Broth II medium by adding 22 grams powdered media to 1.0 liter distilled water; • b. Autoclaving (121° C., 15 psi, 15 minutes) and cooling the medium; • c. Adding Oxyrase® up to about 10% final volume and keeping at 35-37° C. in an incubator for 30 minutes; • d. Adding about 50 μL to each well of a 96 well microtiter plate; • e. Weighing drug and adding broth to drug to bring up to about (standard 128 μg/ml); • f. Adding 50 μL of the drug to the first column of the titer plate; • g. Diluting by two-fold serial diluting across or down the plate. • h. Preparing a Prompt™ inoculum at 10^8 CFU/ml; • i. Diluting inoculum 1:100 in the broth at […] in 9.9 ml (1:100) is 10^6 colony forming units (CFU) forming the adjusted inoculum; • j. Adding 50 μL of the adjusted inoculum to the wells of the microtiter plate; • k. Incubating the plates at 35-37° C. for 18-22 hours; and • l. Reading, with the unaided eye, the MIC.
(§1) The in vitro activities of tigecycline and control antibiotics were determined by the broth microdilution method as recommended by the NCCLS. (National Committee for Clinical Laboratory Standards, 2003. Methods for Dilution Antimicrobial Susceptibility Tests for Bacteria That Grow Aerobically; Approved Standards: M7-A6, Sixth ed, vol. 23., National Committee for Clinical Laboratory Standards Wayne, Pa.) was used for the standard procedures. MBH with 5% lysed horse blood was used for testing S. pneumoniae and Haemophilus Test Medium was used for testing H. influenzae. Oxyrase® (Oxyrase Inc, Mansfield, Ohio) was used according to the manufacturer's instructions by adding 1 ml of Oxyrase® to 50 ml of media. Media age studies were performed by preparing MHB in multiple flasks, then storing the media under various conditions. MICs were usually performed in duplicate on each day of testing. Storage under anaerobic conditions was conducted in an anaerobic chamber (MACS MG 1000, Don Whitley Scientific LTD). The pH of the media was determined by pH meter (Corning 430). A comparison of the in vitro activity of tigecycline by agar and broth dilution methodolgies with and without Oxyrase® against clinical isolates is shown in Table 1.

[1] = tested on: Escherichia coli GC4559 parent GC4560; test: Agar dilution in vitro activity; format: cell-based; conditions: E. coli GC4559
Procedure: as §1, with “Oxyrase® (Oxyrase Inc, Mansfield, Ohio) was used according to the manufacturer's instructions by adding 1 ml of Oxyrase® to 50 ml of media.” left out

[2] = tested on: Escherichia coli GC4560 IMP mutant; test: Agar dilution in vitro activity; format: cell-based; conditions: E. coli GC4560 IMP mutant
Procedure: as §1, with “Oxyrase® (Oxyrase Inc, Mansfield, Ohio) was used according to the manufacturer's instructions by adding 1 ml of Oxyrase® to 50 ml of media.” left out

[3] = tested on: Escherichia coli GC2270 tet(M); test: Agar dilution in vitro activity; format: cell-based; conditions: E. coli GC2270 tet(M)
Procedure: as §1, with “Oxyrase® (Oxyrase Inc, Mansfield, Ohio) was used according to the manufacturer's instructions by adding 1 ml of Oxyrase® to 50 ml of media.” left out

[4] = tested on: Staphylococcus aureus GC4536 Smith MP -In Vivo; test: Agar dilution in vitro activity; format: cell-based; conditions: S. aureus GC4536 Smith
Procedure: as §1, with “Oxyrase® (Oxyrase Inc, Mansfield, Ohio) was used according to the manufacturer's instructions by adding 1 ml of Oxyrase® to 50 ml of media.” left out

[5] = tested on: Escherichia coli GC1073 tet(B) wt; test: Agar dilution in vitro activity; format: cell-based; conditions: E. coli GC1073 tet(B) wt
Procedure: as §1, with “Oxyrase® (Oxyrase Inc, Mansfield, Ohio) was used according to the manufacturer's instructions by adding 1 ml of Oxyrase® to 50 ml of media.” left out

[6] = tested on: Escherichia coli GC2203 ATCC Control; test: Agar dilution in vitro activity; format: cell-based; conditions: E. coli GC2203 ATCC Control
Procedure: as §1, with “Oxyrase® (Oxyrase Inc, Mansfield, Ohio) was used according to the manufacturer's instructions by adding 1 ml of Oxyrase® to 50 ml of media.” left out

[7] = Table 8, E. coli ATCC 25922, Mueller Hinton Broth + Oxyrase, n = 240
[8] = Table 8, E. coli ATCC 25922, Mueller Hinton Broth, n = 320
[9] = Table 9, E. coli ATCC 25922, Mueller Hinton Broth + Oxyrase, n = 33
[10] = Table 9, E. coli ATCC 25922, Mueller Hinton Broth, n = 90

## CN(C)c1cc(NC(=O)CNC(C)(C)C)c(O)c2c1C[C@H]1C[C@H]3[C@H](N(C)C)C(O)=C(C(N)=O)C(=O)[C@@]3(O)C(O)=C1C2=O [Tigecycline, tigecycline]
E. coli ATCC 25922; MHB II + 2% Oxyrase
  MIC: 0.06 µg/mL
E. coli ATCC 25922; Mueller Hinton Broth II (Fresh)
  MIC: 0.06 to 0.25 µg/mL (≈ 0.102 to 0.427 µM)
E. coli ATCC 25922; Mueller Hinton Broth II (MHB II)
  MIC: 0.12 to 0.25 µg/mL (≈ 0.205 to 0.427 µM)
E. coli ATCC 25922; No Oxyrase
  MIC: 0.12 µg/mL (≈ 0.205 µM)
E. coli ATCC 25922; media Aged Anaerobic, N = 4
  MIC: 0.03 to 0.06 µg/mL (≈ 0.0512 to 0.102 µM)
E. coli ATCC 25922; [7]
  Number of Occurrences of MIC 0.06 ug/ml: 130
  Number of Occurrences of MIC 0.12 ug/ml: 103
  Number of Occurrences of MIC 0.25 ug/ml: 5
  Number of Occurrences of MIC 1 ug/ml: 2
E. coli ATCC 25922; [8]
  Number of Occurrences of MIC 0.12 ug/ml: 24
  Number of Occurrences of MIC 0.25 ug/ml: 210
  Number of Occurrences of MIC 0.5 ug/ml: 23
  Number of Occurrences of MIC 1 ug/ml: 58
  Number of Occurrences of MIC 2 ug/ml: 4
  Number of Occurrences of MIC 4 ug/ml: 1
E. coli ATCC 25922; [9]
  Number of Occurrences of MIC 0.03 ug/ml: 3
  Number of Occurrences of MIC 0.06 ug/ml: 13
  Number of Occurrences of MIC 0.12 ug/ml: 14
  Number of Occurrences of MIC 0.25 ug/ml: 3
E. coli ATCC 25922; [10]
  Number of Occurrences of MIC 0.06 ug/ml: 1
  Number of Occurrences of MIC 0.12 ug/ml: 15
  Number of Occurrences of MIC 0.25 ug/ml: 47
  Number of Occurrences of MIC 0.5 ug/ml: 27
[1]; Oxyrase (10%)
  In Vitro Activity of Tigecycline: 0.12
[1]; no Oxyrase
  In Vitro Activity of Tigecycline: 0.25
[2]; Oxyrase (10%)
  In Vitro Activity of Tigecycline: 0.03
[2]; no Oxyrase
  In Vitro Activity of Tigecycline: 0.03
[3]; Oxyrase (10%)
  In Vitro Activity of Tigecycline: 0.12
[3]; no Oxyrase
  In Vitro Activity of Tigecycline: 0.25
[4]; Oxyrase (10%)
  In Vitro Activity of Tigecycline: 0.12
[4]; no Oxyrase
  In Vitro Activity of Tigecycline: 0.25
[5]; Oxyrase (10%)
  In Vitro Activity of Tigecycline: 0.25
[5]; no Oxyrase
  In Vitro Activity of Tigecycline: 0.25
[6]; Oxyrase (10%)
  In Vitro Activity of Tigecycline: 0.12
[6]; no Oxyrase
  In Vitro Activity of Tigecycline: 0.25
